Each compound was assayed against Fibroblast growth factor receptor 3 (Homo sapiens, UniProt P22607) (assay: Inhibition of recombinant human N-terminal His6-tagged FGFR3 (447 to 761 residues) expressed in Sf21 cells using biotinylated EQEDEPEGDYFEWLE peptide as substrate preincubated for 4 hrs followed by substrate addition and measured after 1 hr in presence of ATP by FRET assay).
Sequence of Fibroblast growth factor receptor 3 (P22607 whole entry, the tested form may be a part): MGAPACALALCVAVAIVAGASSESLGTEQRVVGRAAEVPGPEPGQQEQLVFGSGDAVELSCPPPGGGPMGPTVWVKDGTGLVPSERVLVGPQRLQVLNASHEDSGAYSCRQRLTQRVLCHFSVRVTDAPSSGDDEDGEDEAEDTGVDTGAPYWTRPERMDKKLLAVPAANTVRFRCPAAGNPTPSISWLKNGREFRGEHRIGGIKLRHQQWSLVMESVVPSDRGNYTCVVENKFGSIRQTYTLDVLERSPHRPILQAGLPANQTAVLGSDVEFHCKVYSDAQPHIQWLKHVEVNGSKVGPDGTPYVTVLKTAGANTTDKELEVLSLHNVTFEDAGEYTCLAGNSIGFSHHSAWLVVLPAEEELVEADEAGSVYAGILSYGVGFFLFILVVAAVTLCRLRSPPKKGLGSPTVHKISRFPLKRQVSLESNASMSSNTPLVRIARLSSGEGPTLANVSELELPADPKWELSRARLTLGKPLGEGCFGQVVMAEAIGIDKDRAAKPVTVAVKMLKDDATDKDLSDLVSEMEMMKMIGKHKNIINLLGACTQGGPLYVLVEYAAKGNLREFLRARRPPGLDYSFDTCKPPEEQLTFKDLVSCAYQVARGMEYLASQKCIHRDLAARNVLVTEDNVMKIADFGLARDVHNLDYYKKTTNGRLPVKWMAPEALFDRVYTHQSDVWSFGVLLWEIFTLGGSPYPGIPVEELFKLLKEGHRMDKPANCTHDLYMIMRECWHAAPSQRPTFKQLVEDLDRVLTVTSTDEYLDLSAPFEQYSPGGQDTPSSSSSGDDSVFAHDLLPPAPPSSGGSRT

| Structure (SMILES) | IC50 |
| --- | --- |
| CC(C)C1C(=O)N(C)CCN1c1ccc2[nH]nc(-c3cnn(Cc4cccnc4)c3)c2n1 (stereo unspecified) | < 10 nM |
| Cn1cc(-c2n[nH]c3ccc(N4CCn5cnc(C(F)(F)F)c5C4)nc23)cn1 | < 10 nM |
| CC(C)C1C(=O)N(C)CCN1c1ccc2[nH]nc(-c3cnn(C)c3)c2n1 (stereo unspecified) | < 10 nM |
| CN1CCN(c2ccc3[nH]nc(-c4cnn(C)c4)c3n2)C(C2CC2)C1=O (stereo unspecified) | < 10 nM |
| CC(C)C1C(=O)N(C)CCN1c1ccc2[nH]nc(-c3cc4cnccc4s3)c2n1 (stereo unspecified) | < 10 nM |
| CC1CN(c2ccc3[nH]nc(-c4cnn(C)c4)c3n2)C(C)C(=O)N1C (stereo unspecified) | < 10 nM |
